The source of these data is ChEMBL document CHEMBL3860053, “Optimization of amino acid thioesters as inhibitors of metallo-β-lactamase L1” (Bioorg Med Chem Lett, 2016).

The term IC50 denotes the concentration needed to halve the response being measured. Lower therefore signals greater potency in that assay.

Assay [1] is described as follows: Inhibition of metallo-beta-lactamase L1 (unknown origin) overexpressed in Escherichia coli BL21(DE3) preincubated for 30 mins followed by addition of cefazolin as substrate by spectrophotometric method.
A short description of assay [2]: Inhibition of metallo-beta-lactamase L1 (unknown origin) overexpressed in Escherichia coli BL21(DE3) assessed as restoration of cefazolin antibacterial activity by measuring cefazolin MIC at 16 ug/ml measured after 12 hrs by macrodilution broth method (reference value: 16 ug/ml).
Another assay concerns Escherichia coli. Briefly: Potentiation of cefazolin-induced antibacterial activity against Escherichia coli BL21(DE3) assessed as cefazolin MIC at 16 ug/ml measured after 12 hrs by macrodilution broth method (reference value: 4 ug/ml). Format: functional.

Molecules are shown by their SMILES. ≈ marks a conversion by molar mass, not a printed value.

Consider `O=C(O)CSC(=O)[C@H](Cc1ccccc1)NC(=O)Cc1ccccc1`, for which 0.25 µM corresponded to half-maximal inhibition in assay [1] (IC50). Further, the MIC in assay [2] was determined as 2 µg/mL (≈ 5.6 µM); with Escherichia coli it was 4 µg/mL.

Turning to `O=C(O)CSC(=O)c1ccc(NC(=O)OCc2ccccc2)cc1`, the MIC worked out at 16 µg/mL (≈ 46.3 µM) in assay [2] and 4 µg/mL with Escherichia coli.

In assay [1], `O=C(O)CSC(=O)[C@H](Cc1c[nH]c2ccccc12)NC(=O)Cc1ccccc1` gave a 50% inhibitory concentration (IC50) of 0.21 µM. Further, the MIC was determined as 4 µg/mL (≈ 10.1 µM) in assay [2] and 4 µg/mL in the assay on Escherichia coli.

As to `CSCC[C@H](NC(=O)c1ccccc1)C(=O)SCC(=O)O`, the half-inhibitory concentration (IC50) in assay [1] is 0.08 µM. For the same compound, the MIC in assay [2] stood at 4 µg/mL (≈ 12.2 µM); in the assay on Escherichia coli, 4 µg/mL.

On to `O=C(O)CSC(=O)[C@H](Cc1ccccc1)NC(=O)Cc1ccc(-c2ccccc2)cc1`, for which half-maximal inhibition in assay [1] (IC50) required 0.14 µM. Moreover, the figures for the MIC (in assay [2]; with Escherichia coli) were 2 µg/mL (≈ 4.61 µM) and 4 µg/mL, respectively.

As for `CSCC[C@H](NC(=O)Cc1ccc(-c2ccccc2)cc1)C(=O)SCC(=O)O`, half-maximal inhibition in assay [1] (IC50) required 0.02 µM. Further, the MIC in assay [2] came out at 4 µg/mL (≈ 9.58 µM); in the assay on Escherichia coli it was 4 µg/mL.

On to `CCCCCC(=O)N[C@@H](Cc1ccccc1)C(=O)SCC(=O)O`, for which the concentration for half-maximal inhibition (IC50) in assay [1] came to 0.33 µM. The MIC in assay [2] amounted to 2 µg/mL (≈ 5.93 µM); with Escherichia coli, 4 µg/mL.

In assay [1], `CCCCCC(=O)N[C@@H](Cc1c[nH]c2ccccc12)C(=O)SCC(=O)O` gave a half-maximal inhibitory concentration (IC50) of 0.6 µM. In addition, the MIC in assay [2] came out at 4 µg/mL (≈ 10.6 µM); in the assay on Escherichia coli, 4 µg/mL.

For the compound `CSCC[C@H](NC(=O)Cc1ccccc1)C(=O)SCC(=O)O`, the IC50 in assay [1] came to 0.09 µM. In addition, the MIC was 4 µg/mL (≈ 11.7 µM) in assay [2] and 4 µg/mL in the assay on Escherichia coli.

`O=C(O)CSC(=O)[C@H](Cc1c[nH]c2ccccc12)NC(=O)Cc1ccc(-c2ccccc2)cc1` displayed a 50% inhibitory concentration (IC50) in assay [1] of 0.08 µM. Moreover, the MIC in assay [2] stood at 4 µg/mL (≈ 8.46 µM); in the assay with Escherichia coli, 4 µg/mL.
